Test results published in the supplement of paper PMC10307832.

Tests used:
Assay in all cases: relative viability (nuclei count vs DMSO), 5 days (fraction); higher = more cells survive
[1] = compound: C1/C(=C\C2=CC=CS2)/C(=O)/C(=C/C3=CC=CS3)/C1 + CS(=O)(=O)CCNCc1ccc(-c2ccc3ncnc(Nc4ccc(OCc5cccc(F)c5)c(Cl)c4)c3c2)o1 [Lapatinib] (partner 2 µM)
Method in brief: (§1)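 Nuclei were stained with Hoechst during a one-step fixation (final 0.05% Triton X-100, 1% formaldehyde, 1 ug/ml Hoechst) carried out 5 days after dosing, then counted on 4× images. The cells, lung cancer lines in 1536-well plates, had been dosed by pin tool the day after seeding with one drug alone or a fixed anchor-drug dose plus five library-drug doses (not always all listed) in √10 steps. Relative viability is the nuclei count in treated wells divided by that in vehicle wells, and each value is the median of duplicate plates.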

[2] = compound: C1/C(=C\C2=CC=CS2)/C(=O)/C(=C/C3=CC=CS3)/C1 + CCNC(=O)c1noc(-c2cc(C(C)C)c(O)cc2O)c1-c1ccc(CN2CCOCC2)cc1 [Luminespib] (partner 0.01 µM)
Method in brief: as §1

[3] = compound: C[C@]12O[C@H](C[C@]1(O)CO)n1c3ccccc3c3c4c(c5c6ccccc6n2c5c31)CNC4=O [Lestaurtinib] + COc1cccc2cc(-c3nc([C@H]4CC[C@H](C(=O)O)CC4)n4ncnc(N)c34)[nH]c12 [OSI-027] (partner 0.5 µM)
Method in brief: as §1

[4] = compound: C1=CC(=CC=C1C2=CC(=C(S2)NC(=O)N)C(=O)N)F [TPCA-1] + CC1(C)CCC(c2ccc(Cl)cc2)=C(CN2CCN(c3ccc(C(=O)NS(=O)(=O)c4ccc(N[C@H](CCN5CCOCC5)CSc5ccccc5)c(S(=O)(=O)C(F)(F)F)c4)cc3)CC2)C1 [Navitoclax] (partner 0.5 µM)
Method in brief: as §1

Row | Cell Line | relative viability ([1]; first compound 0.2 µM) | relative viability ([1]; first compound 0.6325 µM) | relative viability ([1]; first compound 2 µM) | relative viability ([1]; first compound 6.325 µM) | relative viability ([1]; first compound 20 µM) | relative viability ([2]; first compound 0.2 µM) | relative viability ([2]; first compound 0.6325 µM) | relative viability ([2]; first compound 2 µM) | relative viability ([2]; first compound 20 µM) | relative viability ([3]; first compound 0.005 µM) | relative viability ([3]; first compound 0.01581 µM) | relative viability ([3]; first compound 0.05 µM) | relative viability ([3]; first compound 0.1581 µM) | relative viability ([3]; first compound 0.5 µM) | relative viability ([2]; first compound 6.325 µM) | relative viability ([4]; first compound 0.04 µM) | relative viability ([4]; first compound 0.1265 µM) | relative viability ([4]; first compound 0.4 µM) | relative viability ([4]; first compound 1.265 µM) | relative viability ([4]; first compound 4 µM)
1 | NCI-H358 | 0.435 | 0.482 | 0.475 | 0.459 | 0.424 | 0.324 | 0.453 | 0.337 | 0.341 | 0.658 | 0.629 | 0.285 | 0.232 | 0.0986 |  |  |  |  |  | 
2 | PC-3 [JPC-3] | 0.445 | 0.406 | 0.512 | 0.461 | 0.446 | 0.807 | 0.645 | 0.689 | 0.659 | 0.809 | 0.803 | 0.662 | 0.65 | 0.439 | 0.556 | 0.839 | 0.807 | 0.802 | 0.677 | 0.719
3 | NCI-H1792 | 0.819 | 0.915 | 1.04 |  | 0.899 | 0.509 | 0.285 | 0.468 | 0.388 | 0.95 | 0.698 | 0.83 | 0.776 | 0.424 | 0.583 | 0.714 | 0.622 | 0.677 | 0.621 | 0.279
4 | NCI-H596 | 1.13 | 1.03 | 1.1 | 1 | 1.02 | 1.06 | 1.09 | 1.08 | 0.992 | 0.743 | 0.818 | 0.647 | 0.717 | 0.65 | 0.912 | 0.88 | 0.932 | 1.07 | 0.996 | 1.07
5 | RERF-LC-KJ | 0.915 | 0.943 | 0.827 | 0.893 | 0.764 | 1.26 | 1.36 | 1.25 | 1.14 | 0.525 | 0.577 | 0.491 | 0.461 | 0.315 | 1.15 | 0.967 | 0.883 | 1.06 | 0.866 | 0.766
6 | NCI-H322M | 0.619 | 0.648 | 0.657 | 0.568 | 0.582 | 0.994 | 0.831 | 0.938 | 0.745 | 0.561 | 0.525 | 0.427 | 0.498 | 0.372 | 0.812 | 1.26 | 1.07 | 1.18 | 1.13 | 1.17
7 | EBC-1 | 0.19 | 0.197 | 0.237 | 0.205 | 0.221 |  |  |  |  |  |  |  |  |  |  | 0.355 | 0.397 | 0.564 | 0.351 | 0.293
8 | ABC-1 | 1.28 | 1.09 | 1.03 | 0.971 | 1.27 | 0.33 | 0.853 | 1.04 | 0.521 | 0.505 | 0.65 | 0.342 | 0.456 | 0.175 | 0.428 |  |  |  |  | 
9 | HCC-366 | 1.14 | 0.926 | 1.07 | 0.84 | 0.931 |  |  |  |  | 1.03 | 1.03 | 0.827 | 0.353 | 0.198 |  | 1.01 | 0.942 | 1.14 | 0.952 | 1
